In patent publication US10202354B2, “Therapeutic compounds and uses thereof” (GENENTECH, INC., priority 2015, dated 2019):

These compounds were tested against Full length KDM2B (Homo sapiens (Human), UniProt Q8NHM5) (assay: KDM2B TR-FRET Assay for Determining Inhibitor IC50). Conditions: TR-FRET (HTRF), biotin-H3K36me2 peptide substrate.
Type: biochemical
Description: KDM2B TR-FRET Assay for Determining Inhibitor IC50
The KDM2B TR-FRET Assay described above represents an additional embodiment of the invention.

Full length KDM2B, sequence (Q8NHM5 whole entry): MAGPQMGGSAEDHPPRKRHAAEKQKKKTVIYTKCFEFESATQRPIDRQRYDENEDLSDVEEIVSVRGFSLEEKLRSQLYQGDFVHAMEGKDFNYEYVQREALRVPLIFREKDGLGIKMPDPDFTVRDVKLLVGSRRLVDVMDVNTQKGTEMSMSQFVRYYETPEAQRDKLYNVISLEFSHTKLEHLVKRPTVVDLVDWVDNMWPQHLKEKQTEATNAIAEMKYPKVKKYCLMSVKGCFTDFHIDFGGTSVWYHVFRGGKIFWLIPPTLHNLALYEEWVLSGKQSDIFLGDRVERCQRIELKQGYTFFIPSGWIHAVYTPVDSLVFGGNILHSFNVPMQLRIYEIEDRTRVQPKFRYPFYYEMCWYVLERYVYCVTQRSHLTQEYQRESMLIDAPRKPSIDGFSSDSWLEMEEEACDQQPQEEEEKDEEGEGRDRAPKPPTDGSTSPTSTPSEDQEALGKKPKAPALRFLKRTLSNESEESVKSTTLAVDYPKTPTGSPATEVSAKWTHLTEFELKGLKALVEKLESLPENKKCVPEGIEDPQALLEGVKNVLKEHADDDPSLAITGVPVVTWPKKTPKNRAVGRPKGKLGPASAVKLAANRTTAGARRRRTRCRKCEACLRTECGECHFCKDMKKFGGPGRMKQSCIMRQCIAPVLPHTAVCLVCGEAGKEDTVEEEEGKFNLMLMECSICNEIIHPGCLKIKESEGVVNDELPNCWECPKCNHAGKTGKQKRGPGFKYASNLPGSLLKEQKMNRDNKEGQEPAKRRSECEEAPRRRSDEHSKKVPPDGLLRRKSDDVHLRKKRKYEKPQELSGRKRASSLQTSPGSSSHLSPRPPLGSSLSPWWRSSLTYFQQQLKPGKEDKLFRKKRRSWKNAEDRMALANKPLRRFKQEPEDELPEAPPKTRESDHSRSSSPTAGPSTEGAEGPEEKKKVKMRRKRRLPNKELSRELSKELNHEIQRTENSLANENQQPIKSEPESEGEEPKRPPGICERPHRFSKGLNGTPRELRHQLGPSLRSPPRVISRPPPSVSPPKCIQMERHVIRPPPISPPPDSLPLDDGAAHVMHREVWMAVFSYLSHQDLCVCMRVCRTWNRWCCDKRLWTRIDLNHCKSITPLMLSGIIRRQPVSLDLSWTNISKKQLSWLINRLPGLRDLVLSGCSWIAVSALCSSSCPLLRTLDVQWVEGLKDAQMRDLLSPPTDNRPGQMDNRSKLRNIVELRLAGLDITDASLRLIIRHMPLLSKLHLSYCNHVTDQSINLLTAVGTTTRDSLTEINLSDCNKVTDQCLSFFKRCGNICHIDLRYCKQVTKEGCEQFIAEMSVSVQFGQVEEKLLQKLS

| Structure (SMILES) | IC50 [nM] |
| --- | --- |
| COc1ccc(C(=O)N2CCN=C2N2CCN(C3CCC3)CC2)cc1 [Example 89, [2-(4-cyclobutylpiperazin-1-yl)-4,5-dihydroimidazol-1-yl]-(4-methoxyphenyl)methanone] | 4.38 |
| O=S(=O)(c1ccc(-c2ccsc2)cc1)N1CCN=C1N1CCN(C2CCC2)CC1 [Example 20, 1-cyclobutyl-4-[1-[4-(3-thienyl)phenyl]sulfonyl-4,5-dihydroimidazol-2-yl]piperazine] | 0.021 |
| O=S(=O)(c1cccc2nonc12)N1CCN=C1N1CCN(C2CCC2)CC1 [Example 64, 4-[[2-(4-cyclobutylpiperazin-1-yl)-4,5-dihydroimidazol-1-yl]sulfonyl]-2,1,3-benzoxadiazole] | 0.5 |
| CC1CCC(N2CCN(C3=NCCN3S(=O)(=O)c3ccc(C(C)C)cc3)CC2)C1 (stereo not drawn) [Example 94, 1-[1-(4-isopropylphenyl)sulfonyl-4,5-dihydroimidazol-2-yl]-4-(3-methylcyclopentyl)piperazine] | 1.42 |
| CCN1CCN(C2=NCCN2S(=O)(=O)c2cccc(OC)c2)CC1 [Example 115, 1-ethyl-4-[1-(3-methoxyphenyl)sulfonyl-4,5-dihydroimidazol-2-yl]piperazine] | 3.57 |
| CCN1CCN(C2=NCCN2S(=O)(=O)c2ccc(C(F)(F)F)cc2)CC1 [Example 107, 1-ethyl-4-[1-[4-(trifluoromethyl)phenyl]sulfonyl-4,5-dihydroimidazol-2-yl]piperazine] | 3.92 |
| CC(C)c1ccc(S(=O)(=O)N2CCN=C2N2CCN(C3CCC3)C(C)C2)cc1 (stereo not drawn) [Example 37, 1-cyclobutyl-4-[1-(4-isopropylphenyl)sulfonyl-4,5-dihydroimidazol-2-yl]-2-methyl-piperazine] | 0.689 |
| O=S(=O)(c1cccc(C2CC2)c1)N1CCN=C1N1CCN(C2CCC2)CC1 [Example 35, 1-cyclobutyl-4-[1-(3-cyclopropylphenyl)sulfonyl-4,5-dihydroimidazol-2-yl]piperazine] | 0.087 |
| CCN1CCN(C2=NCCN2S(=O)(=O)c2cccc(OC(F)F)c2)CC1 [Example 104, 1-[1-[3-(difluoromethoxy)phenyl]sulfonyl-4,5-dihydroimidazol-2-yl]-4-ethyl-piperazine] | 7.76 |
| Cc1cccc(S(=O)(=O)N2CCN=C2N2CCN(C3CCC3)CC2)c1 [Example 59, 1-cyclobutyl-4-[1-(m-tolylsulfonyl)-4,5-dihydroimidazol-2-yl]piperazine] | 0.146 |
| O=S(=O)(c1ccc2c(c1)CCCC2)N1CCN=C1N1CCN(C2CCC2)CC1 [Example 32, 1-cyclobutyl-4-(1-tetralin-6-ylsulfonyl-4,5-dihydroimidazol-2-yl)piperazine] | 0.016 |
| CC(C)c1ccc(S(=O)(=O)N2CCN=C2N2CCC(N3CCOCC3)CC2)cc1 [Example 49, 4-[1-[1-(4-isopropylphenyl)sulfonyl-4,5-dihydroimidazol-2-yl]-4-piperidyl]morpholine] | 4.22 |
| O=S(=O)(c1ccc(-c2ccc(O)cc2)cc1)N1CCN=C1N1CCN(C2CCC2)CC1 [Example 17, 4-[4-[[2-(4-cyclobutylpiperazin-1-yl)-4,5-dihydroimidazol-1-yl]sulfonyl]phenyl]phenol] | 0.021 |
| O=S(=O)(c1ccc(-c2cccnc2)cc1)N1CCN=C1N1CCN(C2CCC2)CC1 [Example 7, 1-cyclobutyl-4-[1-[4-(3-pyridyl)phenyl]sulfonyl-4,5-dihydroimidazol-2-yl]piperazine] | 0.151 |
| Cc1ccccc1-c1ccc(S(=O)(=O)N2CCN=C2N2CCN(C3CCC3)CC2)cc1 [Example 8, 1-cyclobutyl-4-[1-[4-(o-tolyl)phenyl]sulfonyl-4,5-dihydroimidazol-2-yl]piperazine] | 0.077 |
| O=S(=O)(c1ccc(-c2ccccc2F)cc1)N1CCN=C1N1CCN(C2CCC2)CC1 [Example 25, 1-cyclobutyl-4-[1-[4-(2-fluorophenyl)phenyl]sulfonyl-4,5-dihydroimidazol-2-yl]piperazine] | 0.046 |
| Cc1ccc(-c2ccc(S(=O)(=O)N3CCN=C3N3CCN(C4CCC4)CC3)cc2)cc1 [Example 10, 1-cyclobutyl-4-[1-[4-(p-tolyl)phenyl]sulfonyl-4,5-dihydroimidazol-2-yl]piperazine] | 0.145 |
| O=S(=O)(c1ccc(C2CC2)cc1)N1CCN=C1N1CCN(C2CCC2)CC1 [Example 34, 1-cyclobutyl-4-[1-(4-cyclopropylphenyl)sulfonyl-4,5-dihydroimidazol-2-yl]piperazine] | 0.058 |
| CC(=O)Nc1ccc(S(=O)(=O)N2CCN=C2N2CCN(C3CCC3)CC2)cc1Cl [Example 81, N-[2-chloro-4-[[2-(4-cyclobutylpiperazin-1-yl)-4,5-dihydroimidazol-1-yl]sulfonyl]phenyl]acetamide] | 0.127 |
| O=S(=O)(c1cccc(C(F)(F)F)c1)N1CCN=C1N1CCN(C2CCC2)CC1 [Example 60, 1-cyclobutyl-4-[1-[3-(trifluoromethyl)phenyl]sulfonyl-4,5-dihydroimidazol-2-yl]-piperazine] | 0.278 |
| Cn1ccc(-c2ccc(S(=O)(=O)N3CCN=C3N3CCN(C4CCC4)CC3)cc2)n1 [Example 28, 1-cyclobutyl-4-[1-[4-(1-methylpyrazol-3-yl)phenyl]sulfonyl-4,5-dihydroimidazol-2-yl]piperazine] | 0.049 |
| Cc1cccc(-c2ccc(S(=O)(=O)N3CCN=C3N3CCN(C4CCC4)CC3)cc2)c1 [Example 9, 1-cyclobutyl-4-[1-[4-(m-tolyl)phenyl]sulfonyl-4,5-dihydroimidazol-2-yl]piperazine] | 0.074 |
| O=C(c1cccc(Cl)c1)N1CCN=C1N1CCN(C2CCC2)CC1 [Example 86, (3-chlorophenyl)-[2-(4-cyclobutylpiperazin-1-yl)-4,5-dihydroimidazol-1-yl]methanone] | 2.04 |
| CCN1CCN(C2=NCCN2S(=O)(=O)c2cccc(Cl)c2)CC1 [Example 113, 1-[1-(3-chlorophenyl)sulfonyl-4,5-dihydroimidazol-2-yl]-4-ethyl-piperazine] | 9.06 |
| O=S(=O)(c1ccc(Cl)c(Cl)c1)N1CCN=C1N1CCN(C2CCC2)CC1 [Example 67, 1-cyclobutyl-4-[1-(3,4-dichlorophenyl)sulfonyl-4,5-dihydromidazol-2-yl]piperazine] | 0.136 |
| O=S(=O)(c1ccc(-c2ccncc2)cc1)N1CCN=C1N1CCN(C2CCC2)CC1 [Example 18, 1-cyclobutyl-4-[1-[4-(4-pyridyl)phenyl]sulfonyl-4,5-dihydroimidazol-2-yl]piperazine] | 0.095 |
| CCN1CCN(C2=NCCN2S(=O)(=O)c2cc(Cl)ccc2Cl)CC1 [Example 106, 1-[1-(2,5-dichlorophenyl)sulfonyl-4,5-dihydroimidazol-2-yl]-4-ethyl-piperazine] | 3.57 |
| Cn1c(=O)oc2cc(S(=O)(=O)N3CCN=C3N3CCN(C4CCC4)CC3)ccc21 [Example 55, 6-[[2-(4-cyclobutylpiperazin-1-yl)-4,5-dihydroimidazol-1-yl]sulfonyl]-3-methyl-1,3-benzoxazol-2-one] | 0.36 |
| CCN1CCN(C2=NCCN2S(=O)(=O)c2ccc(F)cc2F)CC1 [Example 109, 1-[1-(2,4-difluorophenyl)sulfonyl-4,5-dihydroimidazol-2-yl]-4-ethyl-piperazine] | 6.33 |
| COc1ccc(-c2ccc(S(=O)(=O)N3CCN=C3N3CCN(C4CCC4)CC3)cc2)cc1 [Example 3, 1-cyclobutyl-4-[1-[4-(4-methoxyphenyl)phenyl]sulfonyl-4,5-dihydroimidazol-2-yl]piperazine] | 0.08 |
